Data as given in patent US20180250313A1, “COMPOUNDS AND FORMULATIONS FOR TREATING OPHTHALMIC DISEASES” (VIEWPOINT THERAPEUTICS, INC., priority 2015, published 2018).

What was measured:
[1] = Ex vivo human tissue pharmacokinetic experiment: entire human globes soaked six days, C29 exposure in areas of the eye; assay type: in vitro ADME; details: for Calculated Concentration: globe soaked in 1 mM API in 8% cyclodextrin in PBS, six days, room temperature; for Dilution Corrected Concentration: six days soak, 1 mM API in 8% cyclodextrin in PBS
Experimental: Pharmacokinetic experiments were performed on entire human globes (eye without appendages) to determine exposure of the compound (C29) in various areas of the eye. Each globe was obtained less than 24 hours after collection and then soaked in either a solution of 1 mM API in 8% cyclodextrin in PBS or only PBS for six days at room temperature.

[2] = Kinetics of compound accumulation in the lens of entire human globes soaked one to four days; assay type: in vitro ADME; details: human globes in 1 mM API in 8% cyclodextrin in PBS, room temperature
Experimental: In a similar experiment, entire human globes were used to determine the kinetics of compound accumulation in the lens. A total of eight globes were soaked in a solution of 1 mM API in 8% cyclodextrin in PBS for one, two, three, or four days at room temperature.

[3] = Ocular distribution of Compound IIIC after intravitreal administration (LC-MS/MS of ocular tissues); assay type: in vivo, New Zealand White rabbits; details: for Levels in the lens: intravitreal
From the text: New Zealand White rabbits obtained from the Western Oregon Rabbit Company were used for this study. 12 animals were used in this study, and all animals used were male. Prior to treatment initiation, selection of animals for the study was based on a visual appraisal of good clinical condition and body weight specifications. Animals selected for use in this study were as uniform in age and weight as possible. Animal's weights ranged from about 2.58 to about 3.22 kilograms at the start of the experiment. All animals were healthy at the time of animal selection. All animals were identified by ear tag and by cage cards listing the animal identification number, study number, group, and sex of the animal.
The compound of formula IIIC was tested at two different concentrations, 3% weight/volume and 0.5% weight/volume. For both concentrations the compound was formulated as an aqueous suspension. Details of the formulations are as follows: Formulation 1: 3% of ˜500 nm nanoparticles of a compound of formula IIIC in 0.6% tromethamine as buffer, 0.1% polysorbate-80 to aide in dispersion of the API, pH adjusted with boric acid to 7.4, and osmolarity adjusted with mannitol to 293 mOsm. Formulation 2: 0.5% of ˜500 nm nanoparticles of a compound of formula IIIC in 0.6% tromethamine as buffer, 0.1% polysorbate-80 to aide in dispersion of the API, pH adjusted with boric acid to 7.4, and osmolarity adjusted with mannitol to 293 mOsm.
Animals were assigned to one of two experimental groups based on body weight, such that each group contained 6 animals. Animals in group 1 were administered 25 μL for formulation 1 by intravitreous injection, while animals in group 2 were administered 25 μL of formulation 2. Within each group animals were further divided into 3 time points, 2 hours, 1 day and 7 days. Each time point consisted of two animals. Administration of formulations 1 and 2 occurred at time 0.
For intravitreal injections animals were anesthetized with an intramuscular injection of ketamine hydrochloride (12 to 20 mg/kg) and xylazine (5 mg/kg). One to two drops of topical proparacaine hydrochloride anesthetic (0.5%) were applied to the animal's eyes prior to the surgical procedure. The eyes were cleaned with Betadine and then rinsed with balanced salt solution (BSS). Test article was drawn up directly into a 0.3 mL insulin syringe with a 31G 5/16 inch needle, and injections were made 4 to 5 mm away from the limbus. Once the needle was inserted, 25 μL of the test article was injected. The needle was removed and the eye rinsed with BSS. […] Animals were monitored during recovery.
Animals were euthanized at the designated time points by an intravenous injection of pentobarbital (150 mg/kg). […] The concentration of compound IIIC in each collected sample was measured by LC-MS/MS. […]

SMILES: C[C@H](CCCC(C)(C)O)[C@H]1CC[C@H]2[C@@H]3CC=C4C[C@@H](O)CC[C@]4(C)[C@H]3CC[C@]12C [Compound C29, 25-hydroxycholesterol]
- Calculated Concentration ([1]; Human Cornea): 2120 nM
- Dilution Corrected Concentration ([1]; Human Cornea): 4.24 µM
- Calculated Concentration ([1]; Human Iris): 1330 nM
- Dilution Corrected Concentration ([1]; Human Iris): 2.66 µM
- Calculated Concentration ([1]; Human Lens): 7620 nM
- Dilution Corrected Concentration ([1]; Human Lens): 15.24 µM
- Calculated Concentration ([1]; Human Retina): 4310 nM
- Dilution Corrected Concentration ([1]; Human Retina): 8.62 µM
- Calculated Concentration ([1]; Human Vitreous Humor): 2410 nM
- Dilution Corrected Concentration ([1]; Human Vitreous Humor): 4.82 µM
- Average Concentration in Lens ([2]; 1 day of incubation): 14.5 µM
- Average Concentration in Lens ([2]; 2 days of incubation): 20.7 µM
- Average Concentration in Lens ([2]; 3 days of incubation): 39.8 µM
- Average Concentration in Lens ([2]; 4 days of incubation): 37.8 µM
- levels in the vitreous humor, course over time ([3]; intravitreal 25 μL, 3% and 0.5% formulation, 2 hr, 24 hr, 168 hr): decreased steadily at later time points
- levels in the vitreous humor, dependence on dose ([3]; intravitreal 25 μL, 3% versus 0.5% formulation, 2 hr, 24 hr, 168 hr): dose-dependent
- Levels in the lens ([3]; earlier time points): undetectable
- Levels in the lens ([3]; higher-dosed group, last time point (7 days after dosing)): consistently exhibiting detectable levels
